Reference: ChEMBL document CHEMBL1201862, “PubChem BioAssay data set” (2004)
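How tested: cells in 96-well plates exposed to compound for 48 hours at five concentrations. The concentration for 50% growth inhibition is given as GI50.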 Calls of active or inactive are those of the source. Cut-off read from the data, not from the text of the source: active = GI50 up to about 1.1 µM and inactive = higher.

How the values were obtained:
Test in all cases: inhibition of tumour cell growth, NCI panel, 48 h
[1] = system: 786-0
[2] = system: K562
[3] = system: SW-620
[4] = system: UO-31
[5] = system: SF-268
[6] = system: TK-10
[7] = system: HOP-62
[8] = system: COLO 205
[9] = system: IGROV-1
[10] = system: OVCAR-4
[11] = system: SR
[12] = system: BT-549
[13] = system: MDA-MB-435
[14] = system: NCI-H460
[15] = system: LOX IMVI
[16] = system: SN12C
[17] = system: SK-MEL-28
[18] = system: A498
[19] = system: MOLT-4
[20] = system: HT-29
[21] = system: HCC 2998
[22] = system: SNB-19
[23] = system: OVCAR-8
[24] = system: OVCAR-3
[25] = system: UACC-62
[26] = system: SF-295
[27] = system: NCI-H23
[28] = system: ACHN
[29] = system: PC-3
[30] = system: EKVX
[31] = system: T47D
[32] = system: DU-145
[33] = system: HL-60
[34] = system: CCRF-CEM
[35] = system: HCT-15
[36] = system: SK-MEL-5
[37] = system: HCT-116
[38] = system: SK-OV-3
[39] = system: HOP-92
[40] = system: NCI-H522
[41] = system: MCF7
[42] = system: UACC-257
[43] = system: Hs-578T
[44] = system: Malme-3M
[45] = system: M14
[46] = system: KM12
[47] = system: NCI-H226
[48] = system: NCI/ADR-RES
[49] = system: U-251
[50] = system: SF-539
[51] = system: MDA-MB-231
[52] = system: OVCAR-5
[53] = system: A549
[54] = system: RXF 393
[55] = system: RPMI-8226
[56] = system: SK-MEL-2
[57] = system: CAKI-1
[58] = system: SNB-75

Measured: GI50

NCCCNc1ccc2c(c1)[n+]([O-])c1ccccc1[n+]2[O-]
inactive: [1] 29.2 µM | [2] 26.4 µM | [3] 33 µM | [4] 35.3 µM | [5] 27.1 µM | [6] 28.4 µM | [7] 22.7 µM | [8] 18.3 µM | [9] 12.7 µM | [10] 25 µM | [11] 19.1 µM | [12] 13.6 µM | [13] 31.8 µM | [14] 15.7 µM | [15] 7.14 µM | [16] 26 µM | [17] 59.7 µM | [18] 17.2 µM | [19] 15.7 µM | [20] 28.6 µM | [21] 23.2 µM | [22] 28.3 µM | [23] 31.5 µM | [24] 19.8 µM | [25] 17.7 µM | [26] 28.8 µM | [27] 35.5 µM | [28] 21 µM | [29] 27.4 µM | [30] 37.2 µM | [31] 22.7 µM | [32] 27 µM | [33] 19.7 µM | [34] 22.4 µM | [36] 15.2 µM | [37] 17.3 µM | [38] 14.2 µM | [39] 12.7 µM | [40] 13.6 µM | [41] 13.9 µM | [42] 27.2 µM | [43] 18.5 µM | [44] 17.4 µM | [45] 13.8 µM | [46] 25.4 µM | [47] 12.3 µM | [48] > 100 µM | [49] 19.5 µM | [50] 20.6 µM | [51] 19.9 µM | [52] 28.4 µM | [53] 31.5 µM | [54] 20.1 µM | [55] 17.6 µM
22.9 µM: [35]

CCOC(=O)c1c(N2CCN(C)CC2)[nH]c(=O)c(C(c2c(Cl)cccc2Cl)c2c(O)c(C(=O)OCC)c(N3CCN(C)CC3)[nH]c2=O)c1O
30.7 µM: [35]
inactive: [1] 27.7 µM | [2] 25.8 µM | [3] 31.8 µM | [4] 21.5 µM | [5] 24.2 µM | [56] 26 µM | [6] 30.5 µM | [7] 30.3 µM | [8] 33.1 µM | [9] 20.7 µM | [10] 21.5 µM | [11] 21.9 µM | [12] 20.6 µM | [13] 25.8 µM | [14] 28.1 µM | [15] 34.5 µM | [16] 26.3 µM | [17] 17.9 µM | [18] 22.1 µM | [19] 23.5 µM | [20] 19.8 µM | [21] 36.8 µM | [22] 20.4 µM | [23] 22 µM | [24] 34.8 µM | [25] 21.5 µM | [26] 28.1 µM | [27] 40.3 µM | [57] 26.5 µM | [28] 20.7 µM | [29] 22.5 µM | [30] 14.5 µM | [31] 16.5 µM | [32] 17.8 µM | [33] 19.5 µM | [34] 31 µM | [36] 20.7 µM | [37] 38.1 µM | [39] 19.1 µM | [40] 21.9 µM | [41] 29.5 µM | [42] 21.3 µM | [43] 33.8 µM | [44] 22.6 µM | [45] 30 µM | [46] 23.5 µM | [47] 28.6 µM | [48] 71.1 µM | [49] 23.1 µM | [50] 19.4 µM | [51] 25.5 µM | [52] 43 µM | [53] 27.9 µM | [54] 18.2 µM | [55] 39.2 µM

Cc1n[nH]c(=O)n1/N=C/c1ccco1
> 100 µM: [35]
inactive: [1] > 100 µM | [2] > 100 µM | [3] > 100 µM | [4] > 100 µM | [5] > 100 µM | [56] > 100 µM | [7] > 100 µM | [8] > 100 µM | [10] > 100 µM | [12] > 100 µM | [13] > 100 µM | [14] > 100 µM | [16] > 100 µM | [17] > 100 µM | [18] > 100 µM | [19] > 100 µM | [20] > 100 µM | [21] > 100 µM | [22] > 100 µM | [23] > 100 µM | [24] > 100 µM | [25] > 100 µM | [26] > 100 µM | [27] > 100 µM | [57] > 100 µM | [28] > 100 µM | [29] > 100 µM | [30] > 100 µM | [31] > 100 µM | [32] > 100 µM | [34] > 100 µM | [37] > 100 µM | [38] > 100 µM | [41] > 100 µM | [42] > 100 µM | [43] > 100 µM | [44] > 100 µM | [45] > 100 µM | [58] > 100 µM | [46] > 100 µM | [47] > 100 µM | [48] > 100 µM | [49] > 100 µM | [50] > 100 µM | [51] > 100 µM | [52] > 100 µM | [53] > 100 µM | [54] > 100 µM | [55] > 100 µM

N=C(N)N/N=C/c1c(-c2ccccc2)nc2ccn3c(/C=N/N=C(N)N)c(-c4ccccc4)nc3n12
inactive: [1] 82.6 µM | [2] > 100 µM | [3] 36.9 µM | [4] 46.5 µM | [5] > 100 µM | [56] > 100 µM | [6] 59 µM | [7] 55.1 µM | [8] 43.3 µM | [9] 2.11 µM | [10] > 100 µM | [12] 69 µM | [13] 61.2 µM | [14] 32.2 µM | [15] 48.8 µM | [16] 38.8 µM | [17] 39.5 µM | [18] 46.8 µM | [19] > 100 µM | [20] 34.1 µM | [22] 20.3 µM | [23] 26.5 µM | [24] 68.5 µM | [25] 38.9 µM | [26] 55.3 µM | [27] > 100 µM | [57] > 100 µM | [28] 21.8 µM | [29] 62.8 µM | [30] 21.9 µM | [31] > 100 µM | [32] 58.1 µM | [33] 72.6 µM | [34] > 100 µM | [36] 48.4 µM | [37] 26.6 µM | [38] 37.7 µM | [39] > 100 µM | [40] 21.3 µM | [41] 40.2 µM | [42] 23.5 µM | [43] 39.5 µM | [44] 26.2 µM | [45] 49.3 µM | [58] > 100 µM | [46] 26.9 µM | [47] > 100 µM | [48] > 100 µM | [49] 58.5 µM | [50] > 100 µM | [51] > 100 µM | [52] 37 µM | [53] 51.2 µM | [54] > 100 µM | [55] > 100 µM
38.4 µM: [35]

CC(=O)c1nc2ccccc2n1CC(=O)c1ccc([N+](=O)[O-])cc1
42.3 µM: [35]
inactive: [1] 3.47 µM | [2] 5.5 µM | [3] 10.6 µM | [4] 14.9 µM | [5] 30.8 µM | [6] 42.5 µM | [7] 5.06 µM | [8] 34.8 µM | [9] 3.12 µM | [10] 34.8 µM | [11] 7.45 µM | [12] 12.6 µM | [13] 22 µM | [14] 5.74 µM | [15] 7.26 µM | [16] 17.8 µM | [17] 52.6 µM | [18] 55.2 µM | [19] 5.52 µM | [20] 15.2 µM | [22] 13.5 µM | [23] 8.49 µM | [24] 13.5 µM | [25] 10 µM | [26] 17.7 µM | [27] 31.3 µM | [57] 17.4 µM | [29] 10.4 µM | [30] > 100 µM | [31] 8.18 µM | [32] 31.6 µM | [33] 13.8 µM | [34] 9.84 µM | [37] 8.2 µM | [38] 31.2 µM | [40] 2.93 µM | [41] 16.7 µM | [42] 33.6 µM | [43] 6.68 µM | [44] 11.6 µM | [45] 77.1 µM | [58] 35.3 µM | [46] 5.46 µM | [47] 21.5 µM | [48] 13.4 µM | [49] 4.38 µM | [50] 22.3 µM | [51] 26.1 µM | [53] 11.4 µM | [54] 23.8 µM | [55] 20.1 µM
